pEC50: −log10 of the molar value. Where two headings read alike, the source gives them in different places.
How the values were obtained:
3T3-L1 cells = experiment: Apoptosis assay (Caspase-Glo 3/7, Actinomycin D induced); type: cell-based; details: 100 nM Actinomycin D, 48 hours, Caspase-Glo 3/7, 2 hours pre-treatment, read-out: EC50, Inhibition for Apoptosis in 3T3-L1 Cell induced by Actinomycin D
Experimental: Cell Lines and Media. 3T3-L1 cells were obtained from American Type Culture Collection. Cells were grown in DMEM completed media, 10% FBS, and penicillin-streptomycin mix (Invitrogen). Cells were maintained at 37° C. and 5% CO2 in a tissue culture incubator.
Apoptosis Assay. […] We used this assay to screen our compounds for apoptosis inhibition. Briefly, 40 μL of 3000 3T3-L1 cells were seeded per well in 384 well plates, cells were allowed to adhere overnight. In the next day, prepare the Actinomycin D as the apoptosis inducing agent into 100 μM DMSO stock. Prepare the test compounds into 10 mM DMSO stock. Serial dilute the compound into 10 points by 3-fold dilution with DMSO. Pre-treat the 3T3-L1 cells with test compound by transfer 40 nL of stock of serial concentration in triplicate wells using acoustic fluid transfer, incubate for 2 hours. Then transfer 40 nL of 100 μM of Actinomycin D (final concentration is 100 nM) into designated wells using acoustic fluid transfer. Incubate the assay plates at 37° C., 5% CO2, 95% humidity incubator for 48 hours. For caspase assay, add 20 μL/well of Caspase-Glo>3/7 reagent (Promega) into test wells. Incubate for 30 minutes at room temperature to stabilize the luminescence signal. Read the plate with EnSpire Multimode Plate Reader (PerkinElmer). Calculate the EC50 value using formula equation 201: y−(A+((B−A)/(1+((x/C)^D)))) from the XLFit (Excel add-in software), where
A: Average mean of vehicle samples
B: Average mean of cells treated with 100 nM AcD
Z′ factor was used to describe the screening assay perfonuance. The Z′ factor value was >0.5 in all the test plates which indicated the assay was qualified and the IC50 value was reliable for all tested compounds.

[1] = test system: HT-1080 (fibrosarcoma) cells; experiment: Primary screening by ferroptosis assay (Erastin-induced, cell viability, CellTiter-Glo); type: cell-based; details: HT-1080 cells, % remaining activity, read-out: EC50, Inhibition for Ferroptosis in HT-1080 Cell
Experimental: Cell Lines and Media: HT-1080 (fibrosarcoma) cells were obtained from American Type Culture Collection. Cells were grown in EMEM media, 10% Heat-Inactivated FBS, and penicillin-streptomycin mix (Invitrogen). Cells were maintained at 37° C. and 5% CO2 in a tissue culture incubator.
Cell Viability Assay: Seed 10,000 cell/well of HT-1080 cells with 195 μL growth media in black and clear bottom 96-well plates (Cat #Corning 3904) and allow cells to adhere overnight. The next day, dilute test compound by 2-fold dilution into 12 points with medium containing 400 μM Erastin. Transfer 5 μL of compounds solution into growth medium in triplicated wells. 30 hours later, add Cell Titer-Glo® Luminescent cell viability assay reagent (Cat #, Promega G8081) to measure HT-1080 cell viability according to the manufacture protocol. Briefly, aspirate 100 μL medium, and add 50 μL CellTiter-Glo® Luminescent reagent to each well and incubated for 30 minutes at room temperature to stabilize the Luminescent signal. Seal the plates and centrifuged for 1 minute at 1,000 rpm to remove bubbles. Shake the plates for 1 minute on an orbital shaker. Read the plate to detect Luminescent signal with EnSpire Multimode Plate Reader (PerkinElmer). The remaining activity % is used to evaluate Erastin induced ferroptosis in HT-1080 cells and expressed as the following formula: % Remaining Activity−100×[(Sample−Backgroundavg)/(Vehicle−Background avg)]
Sample: Readout from the test compound
Vehicle: Readout from the vehicle sample
Background: Readout from the Erastin only treatment
Dose response curve is graphed by using the non-linear regression analysis (formula equation 201) in XLFit (Excel add-in software) for the average % remaining activity from triplicates, and the EC50 values is then calculated. In this anti-ferroptosis assay, ferrostatin-1, and XJB-5-131 are included as reference. The acceptance criteria were set based on historical result, mean±2.58*SD in logarithmic scale, meanwhile Z′>0.5.

| Compound | pEC50 (3T3-L1 cells) | pEC50 ([1]; 30 hours) | pEC50 (3T3-L1 cells; Mus musculus, 3T3-L1) | pEC50 ([1]; Homo sapiens, HT-1080, 30 h) | pEC50 ([1]; Homo sapiens, 30 hours) |
| --- | --- | --- | --- | --- | --- |
| 1-Oxyl-2,2,6,6-tetramethylpiperidin-4-yl-N-[(4S)—4-{[(2S)-1-[(2S,3E,5S)-2-benzyl-5-{[(tert- butoxy)carbonyl]amino}-7-methyloct-3-enoyl]pyrrolidin-2-yl]formamido}-4-[(1-oxyl-2,2,6,6-tetramethylpiperidin-4-yl)carbamoyl]butyl]carbamate [Example XXXXII] | 6.15 | 6.56 | – | – | – |
| CC(C)C[C@@H](/C=C/[C@H](Cc1ccccc1)C(=O)N1CCC[C@H]1C(=O)NC(CCCNC(=O)OCc1ccccc1)C(=O)NC1CC(C)(C)N(O)C(C)(C)C1)NC(=O)OC(C)(C)C (stereo in doubt) [Example V, Benzyl N-[(4R)—4-{[(2S)-1-[(2S,3E,5S)-2-benzyl-5-{[(tert-butoxy)carbonyl]amino}-7-methyloct-3-enoyl]pyrrolidin-2-yl]formamido}-4-[(1-hydroxy-2,2,6,6-tetramethylpiperidin-4-yl)carbamoyl]butyl]carbamate] | – | – | 5.88 | 6.85 | – |
| CC(C)C[C@@H](/C=C/[C@H](Cc1ccccc1)C(=O)N1CCC[C@H]1C(=O)N[C@@H](CCCNC(=O)OCc1ccccc1)C(=O)NC1CC(C)(C)N(O)C(C)(C)C1)NC(=O)OC(C)(C)C [Example I, Benzyl N-[(4S)—4-{[(2S)-1-[(2S,3E,5S)-2-Benzyl-5-{[(Tert-Butoxy)Carbonyl]Amino}-7-Methyloct-3-Enoyl]Pyrrolidin-2-Yl]Formamido}-4-[(1-Oxyl-2,2,6,6-Tetramethylpiperidin-4-Yl)Carbamoyl]Butyl]Carbamate] | 5.80 | 6.59 | – | – | – |
| CC(C)C[C@@H](/C=C/[C@H](Cc1ccccc1)C(=O)N1CCC[C@H]1C(=O)N[C@@H](C(=O)NC1CC(C)(C)N([O])C(C)(C)C1)C(C)C)NC(=O)OC(C)(C)C [Example II, tert-Butyl ((4S,7S,E)-7-benzyl-8-((S)-2-(((R)-1-((1-oxyl-2,2,6,6-tetramethylpiperidin-4-yl)amino)-3-methyl-1-oxobutan-2-yl)carbamoyl)pyrrolidin-1-yl)-2-methyl-8-oxooct-5-en-4-yl)carbamate] | – | – | 5.52 | – | 6.54 |
| CC(C)C[C@@H](/C=C/[C@H](Cc1ccccc1)C(=O)N1CCC[C@H]1C(=O)N[C@@H](C(=O)N[C@@H](CCCNC(=O)OCc1ccccc1)C(=O)NC1CC(C)(C)N(O)C(C)(C)C1)C(C)C)NC(=O)OC(C)(C)C [Example IV] | – | – | 5.90 | – | 6.25 |
| CC(C)C[C@@H](/C=C/[C@H](Cc1ccccc1)C(=O)N1CCC[C@H]1C(=O)N[C@@H](CCCNC(=O)OCc1ccccc1)C(=O)NC1CC(C)(C)N(O)C(C)(C)C1)NC(=O)OC(C)(C)C [Example IX, Benzyl N-[(4S)—4-{[(2S)-1-[(2S,3E,5S)-2-benzyl-5-{[(tert-butoxy)carbonyl]amino}-7-methyloct-3-enoyl]pyrrolidin-2-yl]formamido}-4-[(1-hydroxy-2,2,6,6-tetramethylpiperidin-4-yl)carbamoyl]butyl]carbamate] | – | 6.58 | 5.86 | – | – |
| CC(C)C[C@@H](/C=C/[C@H](Cc1ccccc1)C(=O)N1CCC[C@@H]1C(=O)N[C@H](C(=O)N[C@@H](CCCNC(=O)OCc1ccccc1)C(=O)NC1CC(C)(C)N(O)C(C)(C)C1)C(C)C)NC(=O)OC(C)(C)C [Example VII, Benzyl N-[(4S)-4-[(2S)—2-{[(2R)-1-[(2S,3E,5S)-2-benzyl-5-{[(tert-butoxy)carbonyl]amino}-7-methyloct-3-enoyl]pyrrolidin-2-yl]formamido}-3-methylbutanamido]-4-[(1-hydroxy-2,2,6,6-tetramethylpiperidin-4-yl)carbamoyl]butyl]carbamate] | – | – | 5.33 | – | 6.47 |
| CC(C)C[C@@H](/C=C/[C@H](Cc1ccccc1)C(=O)N1CCC[C@H]1C(=O)N[C@@H](C(=O)N[C@@H](CCCNC(=O)OCc1ccccc1)C(=O)NC1CC(C)(C)N(O)C(C)(C)C1)C(C)C)NC(=O)OCC1CC1 [Example X, Cyclopropylmethyl N-[(4S,5E,7S)-7-benzyl-8-[(2S)—2-{[(1R)—1-{[(1S)—4-{[(benzyloxy)carbonyl]amino}-1-[(1-hydroxy-2,2,6,6-tetramethylpiperidin-4-yl)carbamoyl]butyl]carbamoyl}-2-methylpropyl]carbamoyl}pyrrolidin-1-yl]-2-methyl-8-oxooct-5-en-4-yl]carbamate] | – | – | 5.86 | – | 6.55 |
| CC(C)C[C@@H](/C=C/[C@H](Cc1ccccc1)C(=O)N1CCC[C@H]1C(=O)N[C@@H](CCCNC(=O)OC1CC(C)(C)N(O)C(C)(C)C1)C(=O)OC(C)C)NC(=O)OC(C)(C)C [Example XXIX, Propan-2-yl (2S)—2-{[(2S)-1-[(2S,3E,5S)-2-benzyl-5-{[(tert-butoxy)carbonyl]amino}-7-methyloct-3-enoyl]pyrrolidin-2-yl]formamido}-5-({[(1-oxyl-2,2,6,6-tetramethylpiperidin-4-yl)oxy]carbonyl}amino)pentanoate] | – | – | 5.36 | 7.14 | – |
| CC(C)C[C@@H](/C=C/[C@H](Cc1ccccc1)C(=O)N1CCC[C@H]1C(=O)N[C@@H](CCCCNC(=O)OCc1ccccc1)C(=O)NC1CC(C)(C)N(O)C(C)(C)C1)NC(=O)OC(C)(C)C [Example XXVI, Benzyl N—[(5 S)—5-{[(2S)-1-[(2S,3E,5S)-2-benzyl-5-{[(tert-butoxy)carbonyl]amino}-7-methyloct-3-enoyl]pyrrolidin-2-yl]formamido}-5-[(1-oxyl-2,2,6,6-tetramethylpiperidin-4-yl)carbamoyl]pentyl]carbamate] | – | – | 6.17 | 6.85 | – |
| CC(C)CC(C=CC(Cc1ccccc1)C(=O)N1CCCC1C(=O)NC(CCCNC(=O)OC1CC(C)(C)N([O])C(C)(C)C1)C(N)=O)NC(=O)OC(C)(C)C [Example XXVIII, tert-Butyl N-[(4S,5E,7S)-7-benzyl-8-[(2S)—2-{[(1S)-1-carbamoyl-4-({[(1-oxyl-2,2,6,6-tetramethylpiperidin-4-yl)oxy]carbonyl}amino-)butyl]carbamoyl}pyrrolidin-1-yl]-2-methyl-8-oxooct-5-en-4-yl]carbamate] | 5.41 | 6.60 | – | – | – |
| COC(=O)[C@H](CCCNC(=O)OC1CC(C)(C)N(O)C(C)(C)C1)NC(=O)[C@@H](NC(=O)[C@@H]1CCCN1C(=O)[C@H](/C=C/[C@H](CC(C)C)NC(=O)OC(C)(C)C)Cc1ccccc1)C(C)C [Example XXXVIII, (S)—Methyl 2-((S)-2-((S)-1-((2S,5S,E)-2-benzyl-5-((tert-butoxycarbonyl)amino)-7-methyloct-3-enoyl)pyrrolidine-2-carboxamido)-3-methylbutanamido)—5-((((1-oxyl-2,2,6,6-tetramethylpiperidin-4-yl)oxy)carbonyl)amino)pentanoate] | – | – | 5.58 | 7.12 | – |
| CC(C)C[C@@H](/C=C/[C@H](Cc1ccccc1)C(=O)N1CCC[C@H]1C(=O)N[C@@H](CCCNC(=O)OC1CC(C)(C)N(O)C(C)(C)C1)C(=O)NC(C)C)NC(=O)OC(C)(C)C [Example XXXXIV, tert-Butyl N-[(4S,5E,7S)-7-benzyl-8-[(2S)—2-{[(1S)-4-({[(1-oxyl-2,2,6,6-tetramethylpiperidin-4-yl)oxy]carbonyl}amino)-1-[(propan-2-yl)carbamoyl]butyl]carbamoyl}pyrrolidin-1-yl]-2-methyl-8-oxooct-5-en-4-yl]carbamate] | – | – | 6.20 | 6.85 | – |

From patent US10889572B2, “Reactive oxygen species scavengers and use for treating diseases” (XW LABORATORIES INC., priority 2017, dated 2021)
